Measurements: PubChem BioAssay (NCI)
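Step 1: Grow cells in 96-well plates. Step 2: Expose to compound for 48 hours at 5 concentrations. Step 3: Interpolate endpoints linearly; if unreached, use highest concentration. TGI is the concentration that stops growth completely.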

Columns and labels:
Assay in all cases: NCI tumour cell line growth inhibition, 48 h
[1] = tested on: MOLT-4 leukemia
[2] = tested on: SF-295 CNS
[3] = tested on: U251 CNS
[4] = tested on: OVCAR-8 ovarian
[5] = tested on: SNB-19 CNS
[6] = tested on: SK-OV-3 ovarian
[7] = tested on: SR leukemia
[8] = tested on: NCI-H522 lung
[9] = tested on: DMS 273 small cell lung
[10] = tested on: HT29 colon
[11] = tested on: KM12 colon
[12] = tested on: UACC-257 melanoma
[13] = tested on: SK-MEL-28 melanoma
[14] = tested on: HL-60(TB) leukemia
[15] = tested on: UACC-62 melanoma
[16] = tested on: A549 NSCLC
[17] = tested on: SNB-78 CNS
[18] = tested on: NCI-H460 lung
[19] = tested on: OVCAR-5 ovarian
[20] = tested on: UO-31 renal
[21] = tested on: A498 renal
[22] = tested on: ACHN renal
[23] = tested on: TK-10 renal
[24] = tested on: EKVX NSCLC
[25] = tested on: SF-268 CNS
[26] = tested on: HOP-62 NSCLC
[27] = tested on: CCRF-CEM leukemia
[28] = tested on: M19-MEL melanoma
[29] = tested on: IGROV1 ovarian
[30] = tested on: M14 melanoma
[31] = tested on: RXF 393 renal
[32] = tested on: NCI-H23 lung
[33] = tested on: HOP-92 NSCLC
[34] = tested on: DMS 114 small cell lung
[35] = tested on: K-562 leukemia
[36] = tested on: HCT-116 colon
[37] = tested on: SN12C renal
[38] = tested on: SK-MEL-5 melanoma
[39] = tested on: DLD-1 colon
[40] = tested on: KM20L2 colon
[41] = tested on: LOX IMVI melanoma
[42] = tested on: HCC-2998 colon
[43] = tested on: OVCAR-4 ovarian
[44] = tested on: SF-539 CNS
[45] = tested on: COLO 205 colon
[46] = tested on: OVCAR-3 ovarian
[47] = tested on: 786-0 renal
[48] = tested on: HCT-15 colon
[49] = tested on: NCI-H226 lung
[50] = tested on: RPMI-8226 leukemia
[51] = tested on: MALME-3M melanoma
[52] = tested on: LXFL 529 NSCLC
[53] = tested on: SW-620 colon
[54] = tested on: CAKI-1 renal

Measured: TGI

CC1(C(=O)Nc2ccc3ccccc3c2)CC2(C)CC(C)(C1)C(O)NC2=O (centres undefined)
> 100 µM: [1] | [2] | [3] | [4] | [5] | [6] | [7] | [8] | [9] | [10] | [11] | [12] | [13] | [14] | [15] | [16] | [17] | [18] | [19] | [20] | [21] | [22] | [23] | [24] | [25] | [26] | [27] | [28] | [29] | [30] | [31] | [32] | [33]

Nc1n[n+](-c2ccccc2)no1
89.6 µM: [15]
89.8 µM: [34]
92.9 µM: [33]
> 100 µM: [35] | [36] | [1] | [2] | [3] | [4] | [5] | [6] | [8] | [9] | [37] | [38] | [10] | [11] | [39] | [12] | [40] | [14] | [16] | [17] | [18] | [19] | [41] | [42] | [20] | [43] | [21] | [44] | [22] | [45] | [46] | [23] | [47] | [48] | [24] | [49] | [50] | [51] | [25] | [26] | [27] | [28] | [29] | [52] | [30] | [53] | [32] | [54]
